This note sets out measurements from publication PMC6379670, “An ultra-high affinity ligand of HIV-1 TAR reveals the RNA structure recognized by P-TEFb” (Nucleic Acids Research, 2018).

In general, pKd refers to −log10 of the Kd, conventionally taken in molar units. A lower pKd goes with a large Kd.

pKd: −log10 of the molar value. Read-outs that look alike come from different tables or passages of the source. Non-standard residues stand in square brackets, D forms with d. Residues, ends and D or L forms follow the SMILES beside them. hArg = N=C(N)NCCCC[C@H](N)C(=O)O

The test system of one data set is JB181 (synthetic). Description: EMSA.
In another data set the target is HIV-1 TAR RNA. Format: binding. Particulars: EMSA, positional scanning library, Table S1. As to the method: (§1) Electro Mobility Shift Assays (EMSA) and 2-aminopurine fluorescence ([35]) were used to measure peptide binding. For EMSA, all RNAs were 5′-dephosphorylated ([25],[26]) and 5′-rephosphorylated using T4 Polynucleotide Kinase (PNK); shifts were performed and analyzed as previously described ([14]). The P-TEFb/Tat1:57/AFF4 binding assays were run as described ([11]), with protein samples generously donated by Drs Ursula Schulze-Gahmen and James Hurley, but binding buffers contained 250× fold excess yeast tRNA. JB181-bound samples were prepared with 3× excess labeled HIV-TAR prior to titration with the pre-formed P-TEFb/Tat1:57/AFF4 complex.
(§2) Fig. S1. a) HIV-1 TAR, BIV TAR and 7SK-SL4 RNAs have similar secondary structures, but the JB181 peptide discriminates between them. […]
(§3) tightly than BIV TAR (3.3 nM) or 7SK (>3 μM) RNAs. b) EMSA of representative JB-peptides with 32P radiolabeled HIV-1 TAR RNA ([RNA]=75pM). The peptide concentration increases from left to right, as indicated. The dissociation constant can be estimated by the peptide concentration where there is an approximate 1:1 ratio (as established by visual inspection) between free RNA and complex, since the RNA concentration is much lower than the KD.
(§4) (1 picture or pasted object on this page, not shown here)

A further data set concerns the target BIV TAR RNA. In words: EMSA binding to BIV TAR. Particulars: positional scanning library, Table S1. The method, then: as §1, §2, §3, §4
(In general: A gel shift assay detects complexes by their altered migration in electrophoresis.)

[1] abbreviates: with tRNA, read-out: Kd (nM) w/tRNA.
[2] abbreviates: without tRNA, read-out: Kd (nM) no tRNA.

Consider 7SK-SL4, for which the pKd in the data set with JB181 (synthetic) (EMSA: 32P RNA (75-100 pM), 250-fold excess tRNA, buffer as in cited work (not given), 2-AP fluorescence: 100 fM RNA, NMR: 10 mM K phosphate pH 6.5, 10 mM NaCl …) is under 5.52.
Consider `CC[C@H](C)[C@@H]1NC(=O)[C@H](CCCNC(=N)N)NC(=O)[C@H](CCCNC(=N)N)NC(=O)CNC(=O)[C@H](CCCCN)NC(=O)[C@H](CCCNC(=N)N)NC(=O)[C@H]([C@@H](C)O)NC(=O)[C@H](CCCNC(=N)N)NC(=O)[C@H](C(C)C)NC(=O)[C@H](CCCCN)NC(=O)[C@@H]2CCCN2C(=O)[C@H]2CCCN2C(=O)[C@H]([C@@H](C)CC)NC(=O)[C@H](CCCNC(=N)N)NC1=O` [JB-60] (cyclo(KVRTRKGRRIRI[dP]P)), for which the Kd on HIV-1 TAR RNA (setting [1]) is 300 nM; on HIV-1 TAR RNA (setting [2]) it was 3 nM; at BIV TAR RNA, over 5000 nM.
In the same order, the values of `CC[C@H](C)[C@@H]1NC(=O)[C@H](CCCNC(=N)N)NC(=O)[C@H](CCCNC(=N)N)NC(=O)CNC(=O)[C@H](CCCCN)NC(=O)[C@H](CCCNC(=N)N)NC(=O)[C@H]([C@@H](C)O)NC(=O)[C@H](CCCNC(=N)N)NC(=O)[C@H](Cc2ccc(O)cc2)NC(=O)[C@H](CCCNC(=N)N)NC(=O)[C@@H]2CCCN2C(=O)[C@H]2CCCN2C(=O)[C@H]([C@@H](C)CC)NC(=O)[C@H](CCCNC(=N)N)NC1=O` [JB-62] (cyclo(RYRTRKGRRIRI[dP]P)) are 150 nM, 1 to 5 nM and 10 nM.
For `CC[C@H](C)[C@@H]1NC(=O)[C@H](CCCNC(=N)N)NC(=O)[C@H](CCCNC(=N)N)NC(=O)CNC(=O)[C@H](CCCCN)NC(=O)[C@H](CCCNC(=N)N)NC(=O)[C@H]([C@@H](C)O)NC(=O)[C@H](CCCNC(=N)N)NC(=O)[C@H](CC(N)=O)NC(=O)[C@H](CCCNC(=N)N)NC(=O)[C@@H]2CCCN2C(=O)[C@H]2CCCN2C(=O)[C@H]([C@@H](C)CC)NC(=O)[C@H](CCCNC(=N)N)NC1=O` [JB-63] (cyclo(RNRTRKGRRIRI[dP]P)) the same measures were 100 nM, 1 nM and under 1 nM.
For `CC[C@H](C)[C@@H]1NC(=O)[C@H](CCCNC(=N)N)NC(=O)[C@H](CCCNC(=N)N)NC(=O)CNC(=O)[C@H](CCCCN)NC(=O)[C@H](CCCNC(=N)N)NC(=O)[C@H]([C@@H](C)O)NC(=O)[C@H](CCCNC(=N)N)NC(=O)[C@H]([C@@H](C)O)NC(=O)[C@H](CCCNC(=N)N)NC(=O)[C@@H]2CCCN2C(=O)[C@H]2CCCN2C(=O)[C@H]([C@@H](C)CC)NC(=O)[C@H](CCCNC(=N)N)NC1=O` [JB-65] (cyclo(RTRTRKGRRIRI[dP]P)) the same measures were 50 nM, 1 nM and under 1 nM.
For `CC[C@H](C)[C@@H]1NC(=O)[C@H](CCCNC(=N)N)NC(=O)[C@H](CCCNC(=N)N)NC(=O)CNC(=O)[C@H](CCCCN)NC(=O)[C@H](CCCNC(=N)N)NC(=O)[C@H]([C@@H](C)O)NC(=O)[C@H](CCCNC(=N)N)NC(=O)[C@H](C(C)C)NC(=O)[C@H](CCCNC(=N)N)NC(=O)[C@@H]2CCCN2C(=O)[C@H]2CCCN2C(=O)[C@H]([C@@H](C)CC)NC(=O)[C@H](Cc2ccc(O)cc2)NC1=O` [JB-78] (cyclo(RVRTRKGRRIYI[dP]P)), the Kd at HIV-1 TAR RNA (setting [1]) is over 1000 nM.
On the same count and under the same terms, then `CC[C@H](C)[C@@H]1NC(=O)[C@H](CCCNC(=N)N)NC(=O)[C@H](CCCNC(=N)N)NC(=O)CNC(=O)[C@H](CCCCN)NC(=O)[C@H](CCCNC(=N)N)NC(=O)[C@H]([C@@H](C)O)NC(=O)[C@H](CCCNC(=N)N)NC(=O)[C@H](C(C)C)NC(=O)[C@H](CCCNC(=N)N)NC(=O)[C@@H]2CCCN2C(=O)[C@H]2CCCN2C(=O)[C@H]([C@@H](C)CC)NC(=O)[C@H](Cc2c[nH]c3ccccc23)NC1=O` [JB-79] (cyclo(RVRTRKGRRIWI[dP]P)), with over 1000 nM.
Same read-out and setting: then `CC[C@H](C)[C@@H]1NC(=O)[C@H](CCCNC(=N)N)NC(=O)[C@H](CCCNC(=N)N)NC(=O)CNC(=O)[C@H](CCCCN)NC(=O)[C@H](CCCNC(=N)N)NC(=O)[C@H]([C@@H](C)O)NC(=O)[C@H](CCCNC(=N)N)NC(=O)[C@H](C(C)C)NC(=O)[C@H](CCCNC(=N)N)NC(=O)[C@@H]2CCCN2C(=O)[C@H]2CCCN2C(=O)[C@H](C)NC(=O)[C@H](CCCNC(=N)N)NC1=O` [JB-83] (cyclo(RVRTRKGRRIRA[dP]P)), with over 1000 nM; and `CC[C@H](C)[C@@H]1NC(=O)[C@H](CCCNC(=N)N)NC(=O)[C@H](CCCNC(=N)N)NC(=O)CNC(=O)[C@H](CCCCN)NC(=O)[C@H](CCCNC(=N)N)NC(=O)[C@H]([C@@H](C)O)NC(=O)[C@H](CCCNC(=N)N)NC(=O)[C@H](C(C)C)NC(=O)[C@H](CCCCNC(=N)N)NC(=O)[C@@H]2CCCN2C(=O)[C@H]2CCCN2C(=O)[C@H]([C@@H](C)CC)NC(=O)[C@H](CCCNC(=N)N)NC1=O` [KP-Y-01] (cyclo([hArg]VRTRKGRRIRI[dP]P)), with 150 nM.
Same read-out and setting: then `CC[C@H](C)[C@@H]1NC(=O)[C@H](CCCNC(=N)N)NC(=O)[C@H](CCCNC(=N)N)NC(=O)CNC(=O)[C@H](CCCCN)NC(=O)[C@H](CCCNC(=N)N)NC(=O)[C@H]([C@@H](C)O)NC(=O)[C@H](CCCCNC(=N)N)NC(=O)[C@H](C(C)C)NC(=O)[C@H](CCCNC(=N)N)NC(=O)[C@@H]2CCCN2C(=O)[C@H]2CCCN2C(=O)[C@H]([C@@H](C)CC)NC(=O)[C@H](CCCNC(=N)N)NC1=O` [KP-Y-02] (cyclo(RV[hArg]TRKGRRIRI[dP]P)), with 200 nM.
Take `CC[C@H](C)[C@@H]1NC(=O)[C@H](CCCNC(=N)N)NC(=O)[C@H](CCCNC(=N)N)NC(=O)CNC(=O)[C@H](CCCCN)NC(=O)[C@H](CCCCNC(=N)N)NC(=O)[C@H]([C@@H](C)O)NC(=O)[C@H](CCCNC(=N)N)NC(=O)[C@H](C(C)C)NC(=O)[C@H](CCCNC(=N)N)NC(=O)[C@@H]2CCCN2C(=O)[C@H]2CCCN2C(=O)[C@H]([C@@H](C)CC)NC(=O)[C@H](CCCNC(=N)N)NC1=O` [KP-Y-03] (cyclo(RVRT[hArg]KGRRIRI[dP]P)): the Kd at HIV-1 TAR RNA (setting [1]) amounted to 200 nM.
On the same count and under the same terms, then `CC[C@H](C)[C@@H]1NC(=O)[C@H](CCCNC(=N)N)NC(=O)[C@H](CCCCNC(=N)N)NC(=O)CNC(=O)[C@H](CCCCN)NC(=O)[C@H](CCCNC(=N)N)NC(=O)[C@H]([C@@H](C)O)NC(=O)[C@H](CCCNC(=N)N)NC(=O)[C@H](C(C)C)NC(=O)[C@H](CCCNC(=N)N)NC(=O)[C@@H]2CCCN2C(=O)[C@H]2CCCN2C(=O)[C@H]([C@@H](C)CC)NC(=O)[C@H](CCCNC(=N)N)NC1=O` [KP-Y-04] (cyclo(RVRTRKG[hArg]RIRI[dP]P)), with 75 nM; and `CC[C@H](C)[C@@H]1NC(=O)[C@H](CCCCNC(=N)N)NC(=O)[C@H](CCCNC(=N)N)NC(=O)CNC(=O)[C@H](CCCCN)NC(=O)[C@H](CCCNC(=N)N)NC(=O)[C@H]([C@@H](C)O)NC(=O)[C@H](CCCNC(=N)N)NC(=O)[C@H](C(C)C)NC(=O)[C@H](CCCNC(=N)N)NC(=O)[C@@H]2CCCN2C(=O)[C@H]2CCCN2C(=O)[C@H]([C@@H](C)CC)NC(=O)[C@H](CCCNC(=N)N)NC1=O` [KP-Y-05] (cyclo(RVRTRKGR[hArg]IRI[dP]P)), with 100 nM.
For GGCUCGUGUAGCUCAUUAGCUCCGAGCC [BIV TAR], the negative-log Kd (pKd) in the data set on JB181 (synthetic) is 8.48.
The same measure, in the same setting: then HIV-1 TAR A35C, with over 8.89; and HIV-1 TAR A35G, G28A, with 7.96.
The same measure, in the same setting: then HIV-1 TAR A35G, G28C, with 8.00; and HIV-1 TAR A35del, with over 8.89.
Same read-out and setting: then HIV-1 TAR G32A, G36A, with over 9.78; and HIV-1 TAR G33A, G34A, G21A, with 7.15; and HIV-1 TAR U25C, with 9.00.
